# Source: patent publication US9695197B2, “Glycosidase inhibitors and uses thereof” (Alectos Therapeutics Inc., priority 2012, dated 2017)
# Tests used:
# human O-GlcNAcase = human O-GlcNAcase (Homo sapiens (Human), UniProt O60502); experiment: Fluorescence-based assay for KI values for inhibition of O-GlcNAcase activity; assay type: biochemical; details: purified human O-GlcNAcase 0.7 nM, 2 mM 4-methylumbelliferyl GlcNAc substrate, pH 7.0, Cheng-Prusoff; read-out: Fluorescence-based hOGA Ki
# Method: Assay for Determination of KI Values for Inhibition of O-GlcNAcase Activity
# Experimental Procedure for Kinetic Analyses:
# Enzymatic reactions were carried out in a reaction containing 50 mM NaH2PO4, 100 mM NaCl and 0.1% BSA (pH 7.0) using 2 mM 4-Methylumbelliferyl N-acetyl-β-D-glucosaminide dihydrate (Sigma M2133) dissolved in ddH2O, as a substrate. The amount of purified human O-GlcNAcase enzyme used in the reaction was 0.7 nM. Test compound of varying concentrations was added to the enzyme prior to initiation of the reaction. The reaction was performed at room temperature in a 96-well plate and was initiated with the addition of substrate. […] The slope of product production was determined for each concentration of compound tested and plotted, using standard curve fitting algorithms for sigmoidal dose response curves. The values for a four parameter logistic curve fit of the data were determined.
# [1] = Apparent permeability (Papp), bi-directional transport in LLC-PK1 cells; assay type: in vitro ADME; details: pig, 1 μM test compound, t=3 h, average of A to B and B to A
# Method: Assay for Determination of Apparent Permeability (Papp)
# Bi-directional transport was evaluated in LLC-PK1 cells in order to determine apparent permeability (Papp). LLC-PK1 cells can form a tight monolayer and therefore can be used to assess vectorial transport of compounds from basolateral to apical (B→A) and from apical to basolateral (A→B).
# To determine Papp, LLC-PK1 cells were cultured in 96-well transwell culture plates (Millipore). Solutions containing the test compounds (1 μM) were prepared in Hank's Balanced Salt Solution with 10 mM HEPES. Substrate solution (150 μL) was added to either the apical (A) or the basolateral (B) compartment of the culture plate, and buffer (150 μL) was added to the compartment opposite to that containing the compound. At t=3 h, 50 μL samples were removed from both sides of monolayers dosed with test compound and placed in 96 well plates, scintillant (200 μL) or internal standard (100 μL labetolol 1 μM) was added to the samples and concentration was determined by liquid scintillation counting in a MicroBeta Wallac Trilux scintillation counter (Perkin Elmer Life Sciences, Boston, Mass.) or by LCMS/MS (Applied Biosystems SCIEX API 5000 triple quadruple mass spectrometer). […]
# The apparent permeability, Papp, was calculated by the following formula for samples taken at t=3 h:
# [formula] […] Papp was expressed as 10^−6 cm/s. […]
# O-GlcNAcase = O-GlcNAcase (Rattus norvegicus (Rat), UniProt Q8VIJ5); experiment: Cell-based ELISA for cellular activity of compounds that inhibit O-GlcNAcase (O-GlcNAcylated protein detected with RL-2 antibody); details: rat PC-12 cells, treated 24 h, O-GlcNAcylated protein by RL-2 ELISA
# Chain of O-GlcNAcase (Q8VIJ5 whole entry): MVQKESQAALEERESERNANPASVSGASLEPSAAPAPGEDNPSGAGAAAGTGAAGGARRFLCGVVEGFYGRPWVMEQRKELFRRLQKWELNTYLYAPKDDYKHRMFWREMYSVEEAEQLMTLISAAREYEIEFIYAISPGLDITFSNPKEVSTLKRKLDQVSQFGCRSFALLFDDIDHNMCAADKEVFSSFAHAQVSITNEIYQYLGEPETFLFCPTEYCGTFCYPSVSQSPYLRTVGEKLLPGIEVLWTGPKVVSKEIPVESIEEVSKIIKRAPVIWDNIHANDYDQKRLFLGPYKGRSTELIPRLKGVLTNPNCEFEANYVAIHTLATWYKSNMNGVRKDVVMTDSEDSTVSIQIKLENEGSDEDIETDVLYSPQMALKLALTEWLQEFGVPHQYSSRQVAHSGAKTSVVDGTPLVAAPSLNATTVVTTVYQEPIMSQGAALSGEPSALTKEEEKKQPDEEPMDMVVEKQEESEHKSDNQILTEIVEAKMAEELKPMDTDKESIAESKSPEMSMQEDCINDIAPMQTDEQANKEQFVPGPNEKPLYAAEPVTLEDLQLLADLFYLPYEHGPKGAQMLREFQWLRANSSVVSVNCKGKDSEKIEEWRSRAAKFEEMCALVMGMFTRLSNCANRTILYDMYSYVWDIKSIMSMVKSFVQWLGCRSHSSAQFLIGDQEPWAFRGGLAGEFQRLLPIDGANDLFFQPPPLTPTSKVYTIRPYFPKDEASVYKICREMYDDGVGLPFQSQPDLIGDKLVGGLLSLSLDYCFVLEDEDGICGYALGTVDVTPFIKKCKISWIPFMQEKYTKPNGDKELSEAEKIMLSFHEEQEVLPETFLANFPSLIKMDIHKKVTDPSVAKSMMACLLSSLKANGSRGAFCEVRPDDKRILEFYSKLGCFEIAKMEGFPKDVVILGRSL
# Text: Assay for Determination of Cellular Activity for Compounds that Inhibit O-GlcNAcase Activity
# Inhibition of O-GlcNAcase, which removes O-GlcNAc from cellular proteins, results in an increase in the level of O-GlcNAcylated protein in cells. An increase in 0-GlcNAcylated protein can be measured by an antibody, such as RL-2, that binds to 0-GlcNAcylated protein. The amount of O-GlcNAcylated protein:RL2 antibody interaction can be measured by enzyme linked immunosorbant assay (ELISA) procedures.
# A variety of tissue culture cell lines, expressing endogenous levels of O-GlcNAcase, can be utilized; examples include rat PC-12, and human U-87, or SK-N-SH cells. In this assay, rat PC-12 cells are plated in 96-well plates with approximately 10,000 cells/well. Compounds to be tested are dissolved in DMSO, either 2 or 10 mM stock solution, and then diluted with DMSO and water in a two-step process using a Tecan workstation. […] To prepare a cell lysate, the media from compound treated cells is removed, the cells are washed once with phosphate buffered saline (PBS) and then lysed for 5 minutes at room temperature in 50 μL of Phosphosafe reagent (Novagen Inc, Madison, Wis.) with protease inhibitors and PMSF. The cell lysate is collected and transferred to a new plate, which is then either coated to assay plates directly or frozen −80° C. until used in the ELISA procedure. If desired, the total protein concentration of samples is determined using 20 μL of the sample using the BCA method.
# The ELISA portion of the assay is performed in a black Maxisorp 96-well plate that is coated overnight at 4° C. with 100 μL/well of the cell lysate (1:10 dilution of the lysate with PBS containing protease inhibitors, phosphatase inhibitors, and PMSF). The following day the wells are washed 3 times with 300 μL/well of Wash buffer (Tris-buffered saline with 0.1% Tween 20). The wells are blocked with 100 μL/well Blocking buffer (Tris buffered saline w/0.05% Tween 20 and 2.5% Bovine serum albumin). Each well is then washed two times with 300 μL/well of wash buffer. The anti O-GlcNAc antibody RL-2 (Abcam, Cambridge, Mass.), diluted 1:1000 in blocking buffer, is added at 100 μL/well. The plate is sealed and incubated at 37° C. for 2 h with gentle shaking. The wells are then washed 3-times with 300 μL/well wash buffer. […] The detection reaction is incubated for 15 minutes at room temperature and then read with excitation at 530 nm and emission at 590 nm.
# The amount of O-GlcNAcylated protein, as detected by the ELISA assay, is plotted for each concentration of test compound using standard curve fitting algorithms for sigmoidal dose response curves. The values for a four parameter logistic curve fit of the data are determined, with the inflection point of the curve being the potency value for the test compound.
# Chain of human O-GlcNAcase (O60502 whole entry): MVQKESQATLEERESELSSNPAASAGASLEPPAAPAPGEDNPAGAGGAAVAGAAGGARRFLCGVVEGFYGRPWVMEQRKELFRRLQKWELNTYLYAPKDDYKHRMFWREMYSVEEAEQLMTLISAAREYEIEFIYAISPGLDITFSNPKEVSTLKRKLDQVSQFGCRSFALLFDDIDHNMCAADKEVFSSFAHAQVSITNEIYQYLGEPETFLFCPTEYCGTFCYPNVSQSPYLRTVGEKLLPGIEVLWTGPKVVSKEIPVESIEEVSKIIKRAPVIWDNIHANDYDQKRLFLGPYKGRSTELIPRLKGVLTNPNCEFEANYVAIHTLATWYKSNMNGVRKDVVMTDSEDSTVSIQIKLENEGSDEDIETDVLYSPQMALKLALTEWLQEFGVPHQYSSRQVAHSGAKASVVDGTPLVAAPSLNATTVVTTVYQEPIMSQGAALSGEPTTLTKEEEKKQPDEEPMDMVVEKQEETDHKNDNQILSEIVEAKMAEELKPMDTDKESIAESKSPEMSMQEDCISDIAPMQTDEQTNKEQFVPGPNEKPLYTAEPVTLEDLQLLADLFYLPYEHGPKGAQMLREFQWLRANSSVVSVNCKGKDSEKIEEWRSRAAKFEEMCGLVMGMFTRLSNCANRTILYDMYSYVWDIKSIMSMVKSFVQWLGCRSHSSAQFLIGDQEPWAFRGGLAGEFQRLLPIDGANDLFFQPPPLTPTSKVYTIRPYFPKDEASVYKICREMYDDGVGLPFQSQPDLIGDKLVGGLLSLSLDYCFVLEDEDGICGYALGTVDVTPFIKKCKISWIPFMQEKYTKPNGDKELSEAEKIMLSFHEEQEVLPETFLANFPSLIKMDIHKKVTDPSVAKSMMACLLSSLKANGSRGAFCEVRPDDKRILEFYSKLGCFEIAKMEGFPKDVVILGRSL
Structure (SMILES),Ki (human O-GlcNAcase),"Papp at 3 h, 1 μM [1]",EC50 (O-GlcNAcase)
"CCNC1=N[C@@H]2[C@@H](O)[C@H](O)[C@@H](CO)S[C@@H]2O1 [Example 1, (3aS,5R,6S,7R,7aR)-2-(ethylamino)-5-(hydroxymethyl)-5,6,7,7a-tetrahydro 3aH-thiopyrano[3,2-d]oxazole-6,7-diol]",3 nM,,
"CCNC1=N[C@H]2[C@@H](S1)S[C@H](CO)[C@@H](O)[C@@H]2O [Example 2, (3aR,5R,6S,7R,7aR)-2-(ethylamino)-5-(hydroxymethyl)-5,6,7,7a-tetrahydro-3aH-thiopyrano[3,2-d]thiazole-6,7-diol]",3 nM,3.7 ×10⁻⁶ cm/s,139 nM
"CCCNC1=N[C@H]2[C@@H](S1)S[C@H](CO)[C@@H](O)[C@@H]2O [Example 3, (3aR,5R,6S,7R,7aR)-5-(hydroxymethyl)-2-(propylamino)-5,6,7,7a-tetrahydro-3aH-thiopyrano[3,2-d]thiazole-6,7-diol]",1.4 nM,,29 nM
"CNC1=N[C@H]2[C@@H](S1)S[C@H](CO)[C@@H](O)[C@@H]2O [Example 4, (3aR,5R,6S,7R,7aR)-5-(hydroxymethyl)-2-(methylamino)-5,6,7,7a-tetrahydro-3aH-thiopyrano[3,2-d]thiazole-6,7-diol]",0.11 nM,,3 nM

# Now from value to compound:
Ki (human O-GlcNAcase),"Papp at 3 h, 1 μM [1]",EC50 (O-GlcNAcase),Structure (SMILES)
22 nM,,349 nM,"CCNC1=N[C@H]2[C@@H](S1)S[C@H](C(F)F)[C@@H](O)[C@@H]2O [Example 5, (3aR,5S,6S,7R,7aR)-5-(difluoromethyl)-2-(ethylamino)-5,6,7,7a-tetrahydro-3aH-thiopyrano[3,2-d]thiazole-6,7-diol]"
,< 1 ×10⁻⁶ cm/s,,"CCNC1=N[C@@H]2[C@@H](O)[C@H](O)[C@@H](CO)O[C@@H]2S1 [N/A, (3 aR,5R,6S,7R,7aR)-2-(ethylamino)-5-(hydroxymethyl)-5,6,7,7a-tetrahydro-3aH-pyrano[3,2-d]thiazole-6,7-diol, reference compound]"
